In patent US9101600B2, “Compounds as RORγt modulators and uses thereof” (New York University, priority 2010, dated 2015):

Legend:
[1] = system: mouse Th17 cell differentiation; test: Cytokine induced mouse Th17 cell differentiation (IL17a production, FACS); type: cell-based; conditions: for effect on mouse Th17 cell differentiation / IL-17a in mouse CD4 T cells (in words): IL-6 and TGF-β
Description: Cytokine induced mouse Th17 cells differentiation. Effects on mouse endogenous RORγt in a relevant physiological setting were determined by testing compounds in the Th17 cell differentiation assay. […] Th1 or regulatory T cell differentiation was used as a counter-screen method to select specific compounds that only affect Th17 cell differentiation without having pleiotrophic effects on general T cell proliferation or cytokine production.
Naive CD4 T cells were cultured with CD3/CD28 stimulatory antibodies in presence of TGFβ and IL6. Compounds were added on Day 1 and cells were analyzed on Day 4. Numbers shown in Table 3 indicate the percentage of mouse Th17 cells.
CD25^−, CD62L^+, and CD44^int-high cells were sorted from B6 mice.

RORγ/γt [2] = target: T1, RORγ/γt (Mus musculus, UniProt P51450, T352K); test: RORγ/γt-luc reporter S2 cell assay / HTS (firefly luciferase); conditions: for 80% Inhib. @: RORγ/γt reporter, S2 cells, concentration for 80% inhibition; for Curve Class: RORγ/γt HTS concentration response curve class; for RORγ/γt reporter activity (in words): S2 cell reporter
T1 sequence (P51450 with tags, fused parts or gaps T352K): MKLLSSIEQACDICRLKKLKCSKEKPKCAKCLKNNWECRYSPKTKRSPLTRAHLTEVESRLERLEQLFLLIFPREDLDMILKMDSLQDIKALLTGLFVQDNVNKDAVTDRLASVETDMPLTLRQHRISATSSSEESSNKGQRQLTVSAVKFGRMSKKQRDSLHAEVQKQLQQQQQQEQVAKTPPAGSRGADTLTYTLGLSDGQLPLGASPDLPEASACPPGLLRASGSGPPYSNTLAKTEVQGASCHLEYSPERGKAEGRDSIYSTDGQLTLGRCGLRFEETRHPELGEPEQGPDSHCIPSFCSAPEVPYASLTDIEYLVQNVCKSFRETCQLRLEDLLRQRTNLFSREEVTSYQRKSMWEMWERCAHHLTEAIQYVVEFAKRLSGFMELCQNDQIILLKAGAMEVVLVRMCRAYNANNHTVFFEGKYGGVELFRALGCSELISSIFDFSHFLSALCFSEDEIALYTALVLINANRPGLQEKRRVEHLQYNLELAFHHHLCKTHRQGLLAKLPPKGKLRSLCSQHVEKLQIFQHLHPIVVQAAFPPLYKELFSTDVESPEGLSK
Description: The Drosophila S2 cell line was originally purchased from Invitrogen and was maintained in Schneider's medium supplemented with 10% heat-inactivated bovine fetal calf serum and antibiotics (Invitrogen). Gal4 DNA binding domain (G4 DBD) corresponding to amino acids 1 through 147 of Gal4 protein was PCR amplified to make a fusion construct with mouse RORγt (amino acids 79 to the carboxyl terminal end) lacking its DNA binding domain. The resulting chimeric gene was subcloned into the copper inducible pMT/V5-His A vector (available from Invitrogen). In a similar manner, Gal4 fusion constructs were prepared with mouse RORα (amino acids 142 to end) or Drosophila DHR3 (amino acids 120 to end).
In order to generate stable cell lines, cells were co-transfected with pMT-G4 DBD-RORγt, pMT-G4 DBD-RORα, pMT-G4 DBD-DHR3, or pMT-G4DBDVP16 and pHygro plasmids (Invitrogen) and screened for resistant colonies in the presence of hygromycin (0.3 mg/mL). More than 150 independent RORγ stable clones with luciferase reporters (pMt-RORγ_luc) were tested for their suitability for the high-throughput screening (HTS) based on the following criteria: high signal-to background ratio in 384- and 1,536-well plates, their high induction rate upon the addition of copper, and RORγ/γt specificity probed by the dsRORγ- or RORγ/γt antagonist-mediated suppression. Positive clones were further transfected with pUAST-firefly luciferase, polIII-Renilla luciferase, and pCoPuro (Iwaki, Figuera et al. 2003) (“Rapid selection of Drosophila S2 cells with the puromycin resistance gene.” Biotechniques 35(3): 482-4, 486.) and selected with puromycin (2.5 ug/ml). […] Using similar methods, stable clones with genomic integration of the luciferase reporters and other reporters were generated such as pMT-RORα_luc, pMT-DHR3_luc, or pMT-VP16_luc.
600 G4 DBD-RORγ/γt-luc reporter (#25) or G4 DBD-VP16-luc reporter cells were distributed into each well of 1,536-well white bottom plates in 4 μl S2 cell culture volume containing hygromicin (300 μg/ml) and puromycin (2 μg/ml). Small compounds in seven different concentrations range from 46 μM to 1.7 nM were pin-transferred (23 nl) by a robot (Inglese et al., 2006, Proc. Natl. Acad. Sci. 103:11473-8). […] After 20-hour incubation at ambient temperature, 1.5 μl firefly luciferase detection mix was added and the luciferase activities were measured in 10 min. ViewLux luminometers were used for measuring luciferase signal.
Since their cognate DNA binding sites were not well characterized, the DNA binding domains (DBD) of RORγ/γt, RORα(mouse homolog for PORγ), and DHR3 (Drosophila orthologue for ROR family proteins) were replaced with the heterologous yeast GAL4 DBD. The transcriptionally active domain of general transcriptional activator VP16 was also fused with GAL4 DBD.

RORγ = target: T2, RORγ (Homo sapiens, UniProt P51449); test: RORγ overexpression dependent IL17a production in human CD4 T cells (RORγt-IRES-GFP transduced); type: cell-based; conditions: human peripheral blood naive CD4+ T cells, transduced day 1, analyzed day 6
T2 construct: expressed in transfected cells; host or cells: human peripheral blood naive CD4+ T cells, virally transduced
T2 sequence (P51449 1-497 isoform P51449-2): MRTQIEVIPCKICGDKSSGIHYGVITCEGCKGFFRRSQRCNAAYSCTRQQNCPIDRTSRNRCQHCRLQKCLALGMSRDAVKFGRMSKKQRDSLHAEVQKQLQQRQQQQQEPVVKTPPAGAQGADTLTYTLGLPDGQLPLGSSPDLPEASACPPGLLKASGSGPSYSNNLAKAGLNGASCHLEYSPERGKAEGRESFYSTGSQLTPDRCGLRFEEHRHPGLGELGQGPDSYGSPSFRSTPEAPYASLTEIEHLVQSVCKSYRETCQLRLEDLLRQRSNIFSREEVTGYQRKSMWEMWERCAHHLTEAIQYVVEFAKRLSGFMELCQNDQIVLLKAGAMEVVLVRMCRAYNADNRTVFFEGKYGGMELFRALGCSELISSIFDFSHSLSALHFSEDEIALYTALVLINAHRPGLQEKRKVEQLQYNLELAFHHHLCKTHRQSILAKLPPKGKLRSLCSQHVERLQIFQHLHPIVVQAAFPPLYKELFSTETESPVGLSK
Description: ROR dependent Th17 cell differentiation.
GFP expressing cells were gated for analysis. DMSO or compounds were added 6-8 hours after viral transduction.

[3] = system: VP16-luc, RORα-luc, and DHR3-luc reporter S2 cell lines; test: S2 cell reporter specificity test on other closely related reporters; type: cell-based; conditions: S2 cell assay
RORγ/γt [4] = target: T1, RORγ/γt; test: Small-scale screening, G4BD-RORγt stable S2 cells with transient transfection of two luciferase constructs; type: cell-based; parameters: expressed in transfected cells
Description: Promega Dual-Glo system is widely used for HTS as the luciferase substrates. Cell culture medium was reduced to the final volume of 10 μl or less and 10 μl of Dual-glo and 10 μl of Stop-glo luciferase substrates were added in a sequencial manner (Promega). Firefly and Renilla luciferase activity was determined by measuring luminescence signals using an automated 384-well plate reader equipped with multiple stack units (such as the Analyst GT or Envision plate readers).

[5] = system: human naive cord blood T cells; test: Human Th17 cell differentiation, naive cord blood T cells (IL-17a and IFN-γ, flow cytometry); type: cell-based; conditions: six days, IL2, IL23, ILβ, TGFβ
Excerpt: Human Th17 cell differentiation. Compound effects on human RORγt will be tested by treating human cord blood CD4 T cells with select compounds to determine if such compounds alter differentiation into Th17 lineages.

[6] = 20 μM, DMSO 17% Th17, compound added Day 1, analyzed Day 4
[7] = 5 μM, DMSO 25% Th17, compound added Day 1, analyzed Day 4
[8] = at 10 uM (Table 4, printed in 20 μM column)

Row | Structure (SMILES) | percentage of mouse Th17 cells (IL17a production) [1, 6] | percentage of mouse Th17 cells (IL17a production) [1, 7] | IC50 (RORγ/γt [2]) | 80% Inhib. @ (RORγ/γt [2]) | also measured
1 | Cc1nn(-c2cc(C)c3ccccc3n2)c2c1C1C(C2)C1(C)C (stereo not shown) [MLS000526165-02] | 8.3% | – | – | – | –
2 | COc1ccc(OC)c(NC(=S)N(CCc2c(C)[nH]c3ccccc23)Cc2cccs2)c1 [MLS000696943-02] | 3.1% | 13.9% | 13400 nM | 35.57 µM | –
3 | O=C(NC(=S)Nc1nc(-c2ccccc2)cs1)c1cccnc1 [MLS000592121-02] | 27.7% | 27.7% | 17800 nM | 62.17 µM | –
4 | CC(C)(C)c1ccc(-c2noc(CCC(=O)Nc3cccnc3)n2)cc1 [MLS001217081-02] | 8.3% | – | – | – | –
5 | O=C(CCCOc1ccccc1)Nc1nc2ccccc2[nH]1 [MLS000772650-02] | 9.9% | 16.9% | 8670 nM | 12.38 µM | –
6 | Cc1cccc(-c2nc3cc(NC(=O)C4CCCO4)ccc3o2)c1 (stereo not shown) [MLS000700815-02] | 11.9% | – | – | – | –
7 | CCOC(=O)C1CCN(CC(=O)Nc2cc(C)nn2-c2nc3ccccc3s2)CC1 [MLS000569401-02] | – | 15% | – | – | –
8 | CCOC(=O)[C@@H]1[C@H]2COc3cc(OC)ccc3[C@@H]2N2C(=O)N(c3ccc(C)cc3)C(=O)[C@@]12C [MLS001066267-01] | – | – | 5000 nM | 10 µM | RORγ overexpression dependent IL17a production (in words) (RORγ): inhibit; percentage of mouse Th17 cells (IL17a production) [1, 8]: 13.5 (at 10 uM) %; AC50 (RORγ/γt [2]): 5010 nM; Curve Class (RORγ/γt [2]): −2.1
9 | Cc1cc(C)n(-c2nc(SCC(=O)O)c3c4c(sc3n2)CCCC4)n1 [MLS000778763-02] | 10.2% | – | – | – | –
10 | C=C1NN=C(c2ccccc2Br)N1N=Cc1ccc(N(CC)CC)cc1 [MLS000767819-02] | 10.2% | – | 2780 nM | 7.562 µM | activity of other closely related reporters (in words) [3]: without having effects; RORγ/γt reporter activity (in words) (RORγ/γt [2]): suppression of RORγ reporter activity
11 | COc1ccc(C(=O)/C=C/c2ccc(OC)cc2OC)c(O)c1 [MLS001048850-02] | 11.9% | – | 543 nM | 1.646 µM | –
12 | CCOC(=O)[C@@H]1[C@H]2COc3ccc(Br)cc3[C@@H]2N2C(=O)N(c3ccccc3)C(=O)[C@@]12C [MLS001066232-01] | – | – | – | – | activity of other closely related reporters (in words) [3]: without affecting the activity; RORγ overexpression dependent IL17a production (in words) (RORγ): inhibit; percentage of mouse Th17 cells (IL17a production) [1, 8]: 10.4 (at 10 uM) %; AC50 (RORγ/γt [2]): 10000 nM; Curve Class (RORγ/γt [2]): −2.1; RORγ/γt reporter activity (in words) (RORγ/γt [2]): inhibition of RORγ reporter
13 | O=C(CCCN1C(=O)/C(=C/c2ccccc2Cl)SC1=S)Nc1cccnc1 [MLS001034558-02] | dead | 14.3% | 1600 nM | 8.843 µM | –
14 | Cc1ccc(Sc2cncc3sc(C(N)=O)cc23)cc1 [NCGC00167761-02] | 3.6% | 11.6% | 281 nM | 0.7759 µM | –
15 | CC1OC(OC2C(O)CC(OC3C(O)CC(OC4CCC5(C)C(CCC6C5CC(O)C5(C)C(C7=CC(=O)OC7)CCC65O)C4)OC3C)OC2C)CC(O)C1O (stereo not shown) [digoxin, reference compound] | – | – | – | – | Th17 (percentage of mouse Th17 cells) ([1]; 10 μM, DMSO 26% (Table 5)): 0.91%
16 | O=C(/C=C/c1ccc(S(=O)(=O)N2CCOCC2)cc1)NC(=S)Nc1ccc(N2CCOCC2)cc1 [MLS000402315-02] | 4.8% | – | 2610 nM | 7.292 µM | –
17 | C[C@H]1O[C@@H](O[C@H]2[C@@H](O)C[C@H](O[C@H]3[C@@H](O)C[C@H](O[C@H]4CC[C@@]5(C)[C@H](CC[C@@H]6[C@@H]5CC[C@]5(C)[C@@H](C7=CC(=O)OC7)CC[C@]65O)C4)O[C@@H]3C)O[C@@H]2C)C[C@H](O)[C@@H]1O [digitoxin] | – | – | – | – | RORγ/γt antagonist identification (in words) (RORγ/γt [4]): specific RORγ/γt antagonists
18 | CC(=O)[C@@]1(O)CC[C@H]2[C@H]3C[C@@H](C)C4=CC(=O)C=C[C@]4(C)[C@@]3(F)[C@@H](O)C[C@]21C [NCGC00016442-02] | 2.6% | 4.8% | – | – | –
19 | CCOC(=O)c1sc(NC(=O)c2cc3c(s2)CCC(C)C3)nc1C (stereo not shown) [MLS000566729-02] | 12.1% | 16.3% | 134 nM | 0.4389 µM | –
20 | CCOc1ccc(-c2cc(CCCC(=O)NCc3cccnc3)no2)cc1 [MLS000118457-02] | 10.7% | – | – | – | –
21 | CCOC(=O)[C@@H]1[C@H]2COc3ccccc3[C@@H]2N2C(=O)N(c3ccc(OC)cc3)C(=O)[C@@]12C [MLS001066514-01] | – | – | – | – | AC50 (RORγ/γt [2]): 14100 nM; Curve Class (RORγ/γt [2]): 4
22 | C=C1NN=C(c2cc(-c3cccc(OCC)c3)nc3ccccc23)N1CC [MLS000324596-02] | – | – | 2110 nM | 3.293 µM | –
23 | C[C@H]1[C@H](C)CC[C@]2(C(=O)O)CC[C@]3(C)C(=CC[C@@H]4[C@@]5(C)CC[C@H](O)C(C)(C)[C@@H]5CC[C@]43C)[C@H]12 [ursolic acid] | – | – | – | – | effect on human CD4 T cell cytokine production (in words) [5]: RORγt specific inhibitory effects; effect on mouse Th17 cell differentiation / IL-17a in mouse CD4 T cells (in words) [1]: RORγt specific inhibitory effects
24 | CO[C@H]1[C@@H](O)CC(OC2[C@@H](O)CC(OC3[C@@H](O)C[C@H](OC4CC[C@@]5(C)C(CCC6C5CC(O)[C@]5(C)[C@H](C7=CC(=O)OC7)CCC65O)C4)O[C@@H]3C)O[C@@H]2C)O[C@@H]1C (stereo partly shown) [NCGC00168746-02] | 1.2% | 4.5% | 1990 nM | 6.27 µM | –
25 | CCOC(=O)[C@@H]1[C@H]2COc3cc(OC)ccc3[C@H]2N2C(=O)N(c3ccc(F)cc3)C(=O)[C@@]12C [MLS001066248-01] | – | – | – | – | Curve Class (RORγ/γt [2]): 4
26 | C=C(NC(=O)c1ccccc1)N1CCN(c2ncc3c(=O)c(C(=O)O)cn(CC)c3n2)CC1 [MLS000777984-02] | 8.9% | – | – | – | effect on mouse Th17 cell differentiation / IL-17a in mouse CD4 T cells (in words) [1]: RORγt specific inhibitory effects
27 | CN1CCN(C(=O)CCN2C(=O)/C(=C\c3ccccc3F)SC2=S)CC1 [MLS001201644-02] | – | – | 16700 nM | 40.36 µM | –
28 | CCOC(=O)[C@@H]1[C@H]2COc3cc(OC)ccc3[C@H]2N2C(=O)N(c3cccc(Cl)c3)C(=O)[C@]12C [MLS001066301-01] | – | – | – | – | AC50 (RORγ/γt [2]): 631 nM; Curve Class (RORγ/γt [2]): 4
29 | C[C@H]1[C@H](C)CC[C@]2(C(=O)O)CC[C@]3(C)C(=CC[C@@H]4[C@@]5(C)CC[C@H](O)C(C)(C)[C@@H]5CC[C@]43C)[C@H]12 [MLS000728569-02] | dead | 3.7% | – | – | –
